Results as given in publication PMC5307958 (Scientific Reports, 2017).
“Also recorded” adds a separate entry of the source. Where a SMILES comes first, the peptide text is derived from it. Bridges are numbered along the chain shown (N, C = ends).

Columns and labels:
[1] = biological target: T1, human BKα channel (ZERO isoform) expressed in HEK293 cells (Homo sapiens, UniProt Q12791); assay: Patch-clamp recording, inside-out patches, extracellular application; type: cell-based
T1 construct: expressed in transfected cells; host or cells: HEK293 (ATCC), transient transfection with Lipofectamine 2000; EGFP cotransfected as a separate marker
T1 sequence (Q12791 1-1178 isoform Q12791-5): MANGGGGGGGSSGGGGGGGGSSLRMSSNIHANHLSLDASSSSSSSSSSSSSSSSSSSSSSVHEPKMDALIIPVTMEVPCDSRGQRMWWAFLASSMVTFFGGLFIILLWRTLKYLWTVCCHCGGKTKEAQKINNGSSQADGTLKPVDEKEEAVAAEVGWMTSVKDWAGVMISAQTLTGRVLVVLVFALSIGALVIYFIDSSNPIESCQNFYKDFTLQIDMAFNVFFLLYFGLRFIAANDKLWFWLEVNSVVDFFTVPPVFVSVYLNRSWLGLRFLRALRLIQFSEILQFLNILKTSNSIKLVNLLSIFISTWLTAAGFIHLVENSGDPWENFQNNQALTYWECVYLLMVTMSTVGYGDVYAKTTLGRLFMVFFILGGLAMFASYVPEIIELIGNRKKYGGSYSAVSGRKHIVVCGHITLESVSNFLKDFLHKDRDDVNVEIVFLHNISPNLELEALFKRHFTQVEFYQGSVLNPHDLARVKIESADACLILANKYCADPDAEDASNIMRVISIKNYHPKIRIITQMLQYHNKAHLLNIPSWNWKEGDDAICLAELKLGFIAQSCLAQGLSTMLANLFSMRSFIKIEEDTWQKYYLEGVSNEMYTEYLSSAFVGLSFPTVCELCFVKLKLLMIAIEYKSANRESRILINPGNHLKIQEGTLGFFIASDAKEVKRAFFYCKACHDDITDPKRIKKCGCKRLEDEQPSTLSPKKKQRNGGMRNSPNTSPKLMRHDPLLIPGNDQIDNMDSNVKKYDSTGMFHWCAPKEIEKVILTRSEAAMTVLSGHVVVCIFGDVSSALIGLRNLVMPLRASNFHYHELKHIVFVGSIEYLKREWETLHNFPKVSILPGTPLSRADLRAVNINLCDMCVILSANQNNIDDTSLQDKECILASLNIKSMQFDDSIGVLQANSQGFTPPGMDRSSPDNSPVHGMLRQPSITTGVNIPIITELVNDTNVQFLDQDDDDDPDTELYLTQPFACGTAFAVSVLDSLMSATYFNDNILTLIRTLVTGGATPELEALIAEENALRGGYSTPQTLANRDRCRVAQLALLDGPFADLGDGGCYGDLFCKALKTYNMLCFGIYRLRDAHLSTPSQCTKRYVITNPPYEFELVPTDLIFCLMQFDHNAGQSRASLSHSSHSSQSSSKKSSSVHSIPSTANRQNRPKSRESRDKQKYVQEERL
Protocol: HEK293 cells (ATCC, Manassas, VA) were grown according to standard procedures. Cells were cultured at 37 °C in a 5% CO2 atmosphere in Dulbecco’s modified Eagle’s medium with L-glutamine, sodium pyruvate and 10% fetal bovine serum (Invitrogen). Cell lines were split with trypsin/EDTA in Hanks’ balanced salt solution (Invitrogen) up to 25–30 cycles. For phage display, stable lines stably expressed rSK2 or hBKα ZERO isoform. Cells were transfected (Lipofectamine 2000, Invitrogen) with hGlyRα1 and used 48 hours later. For electrophysiological recordings, cells were transfected with hBKα ZERO isoform. Enhanced green fluorescent protein (EGFP) was cotransfected as a marker. Electrophysiological recordings were made 16–72 h after transfection. Although the profile of BK channel composition varies from tissue to tissue, the ZERO BK channel splice variant is widely expressed, particularly in the nervous system, serving as a representative form for studying the modulation of BK channel gating.
Voltage-clamp recordings were performed at room temperature (22–24 °C) using an inside-out configuration on patches pulled from HEK293 cells. The extracellular solution contained the following (in mM): 2 KCl, 136 KOH, 20 HEPES, 2 MgCl2, adjusted to pH 7.2 with MeSO3H. In order to apply peptide to the extracellular surface, patch electrodes (7–20 MΩ in resistance) were tip-filled with normal extracellular solution and backfilled with extracellular solution containing LS3. Enough normal extracellular solution was included to provide at least five minutes of peptide-free recording (determined by plotting Po vs. time). The intracellular solution (in the bath) contained the following (in mM): 6 KCl, 132 KOH, 20 HEPES, adjusted to pH 7.2 with MeSO3H. To achieve 750 nM free Ca^2+, […] and 5 mM EGTA were included, a ratio verified by measurement with a Ca^2+-sensitive electrode. Voltage-clamp recordings made with an Axopatch 200 A amplifier and custom macros in IgorPro. Analysis was performed with QUB (http://www.qub.buffalo.edu), including Po, mean open time and three component exponential fits to closed dwell times. Group means±SEM for post-peptide measures were plotted relative to pre-peptide values and compared with pre values via planned paired t-tests.

[2] = test system: mouse inferior colliculus (auditory midbrain); assay: Sound evoked activity within excitatory receptive field (eRF), topical application on dura
[3] = biological target: T1, human BKα channel (ZERO isoform) expressed in HEK293 cells; assay: Patch-clamp recording, inside-out patches, intracellular application; type: cell-based; settings: 50 nM LS3 applied to intracellular (internal) side; n.s., N = 6
[4] = test system: mouse inferior colliculus (auditory midbrain); assay: Sound evoked activity within excitatory receptive field (eRF), systemic administration; settings: for spikes within the eRF, representative eRF: baseline 522 spikes, BF 19.5 kHz
[5] = test system: slo-1 null worms (NM1968, js379); assay: C. elegans crawl speed, slo-1 null; type: in vivo, Caenorhabditis elegans; settings: for effect on crawl speed (LS3 reduced crawl speed for wild type but not slo-1(null)): 30 min
Protocol: Worms were cultivated at 20 °C as described with OP50 bacteria. Worms cultured on plates contaminated with fungi or other bacteria were excluded from this study. The reference wild-type strain was N2 Bristol. The reference slo-1(null) strain and background for transgenic strains was NM1968, harboring the previously characterized null allele, js379[29]. Multi-site gateway technology (Invitrogen) was used to construct plasmids. […] of the native slo-1 promoter (Pslo-1) and the traditional unc-54 UTR were used in combination with slo-1a(cDNA)::mCherry for a rescue construct. To test rescue with the human BK channel, an hslo(ZERO isoform, cDNA)::mCherry version was constructed. The slo-1(+) and hslo(+) plasmids were injected at a concentration of 20 and 10 ng/μl, respectively. The co-injection reporter PCFJ90 (1.25 ng/μl) was used to ensure proper transformation of the arrays. As such, JPS345 carried vxEx345, an extrachromosomal array containing [Pslo-1::slo-1::mCherry::unc-54UTR,Pmyo-2::mCherry::unc-54UTR]. JPS340 carried […], an extrachromosomal array containing [Pslo-1::hslo::mCherry::unc-54UTR,Pmyo-2::mCherry::unc-54UTR].
Age-matched day one adults were cleaned of bacteria by letting them crawl around on an unseeded plate and then moved into a puddle of NGM or peptide dissolved in NGM on another unseeded plate. NGM and peptide treatment groups were always run in tandem to control for behavioral variance. While much shorter than typical drug applications in C. elegans, brief application in liquid was chosen to avoid potential catabolic by-products of incubation on metabolically active E. coli. Higher LS3 concentrations were used to compensate. The puddle was refreshed 1–2 times as needed, but let to fully absorb into the agar by 30 minutes. After 30 minutes, crawl behavior was videoed (Flea2 camera, Point Grey Research, Canada; StreamPix 3, NorPix, Canada). Copper rings restricted movement to a proscribed area. The worms were tracked offline using custom macros (Image-Pro, MediaCybernetics, Rockville, MD) for 1 minute to obtain crawl speed (cm/min). Group means ± SEM for peptide-treated vs. vehicle-treated controls were compared at each concentration with Student’s t-tests. Rescue analysis was completed with two-way ANOVA (SigmaPlot, San Jose, CA). Crawl speeds for the peptide treated groups were also normalized to the performance of yoked controls. Normalized group means±SEM were compared vs. slo-1 null performance by two-way ANOVA.

mAcetylcholine M4 = assay: Competition radioligand binding (NIMH PDSP); settings: radioligand QNB, measured 4 times

CC(C)C[C@@H]1NC(=O)CNC(=O)[C@H](CCCNC(=N)N)NC(=O)[C@H](CCCNC(=N)N)NC(=O)[C@@H](N)CSSC[C@@H](C(=O)O)NC(=O)[C@H](C(C)C)NC(=O)[C@H](CCC(N)=O)NC(=O)[C@H](C(C)C)NC1=O [LS3] (H-CRRGLVQVC-OH; disulfide 1-9; N-terminus and C-terminus assumed)
effect on Po (post vs. pre peptide) ([1]; 50 pM LS3, extracellular, any voltage (60–100 mV), 750 nM Ca): did not significantly alter the Po | effect on Po (post vs. pre peptide) ([1]; 500 pM to 500 nM LS3, extracellular, each holding potential 60–100 mV, 750 nM Ca, N = 6–12): reduced the Po at each holding potential | effect on Po (post vs. pre peptide) ([1]; 50 nM LS3 applied to extracellular (external) side, each voltage, p < 0.05, N = 6): reduction in Po at each voltage; also recorded: significantly reduce Po at all voltages | short closed dwell times ([1]; 500 nM LS3, 750 nM Ca, three-component exponential fits, component 0, N = 8): remained unchanged; also recorded: did not change significantly | long closed dwell times ([1]; 500 nM LS3, 750 nM Ca, three-component exponential fits, component 2, p < 0.05, N = 8): increased; also recorded: lengthened | post Po relative to pre ([1]; 500 nM LS3, 40 mV, p < 0.05): 0.54 ± 0.17 | single channel conductance post LS3 ([1]; 500 nM LS3, 60 mV, pre peptide 282 ± 4.62 pS (remained stable)): 287 ± 5.12 pS | mean open times ([1]; 500 nM LS3, all holding potentials 60–100 mV, 750 nM Ca, p < 0.05, N = 8): decreasing mean open times at all holding potentials; also recorded: shortened openings | reduction of probability of channel opening (Po) ([1]; 60 mV, high picomolar to nanomolar LS3, extracellular, intracellular calcium 750 nM): ~ 60% | apparent affinity compared with known blockers ([1]; LS3 vs. known high affinity BK channel toxins / Kv peptide toxins or paxilline): higher than known high affinity BK channel toxins; also recorded: higher apparent affinity than Kv peptide toxins or paxilline | mode of action on channel ([1]; from change in mean open and closed times, rather than blocking the pore): modulates channel gating | IC50 for reduction of BK channel open probability (Po) ([1]; inside-out patches, peptide applied to extracellular side, intracellular calcium 750 nM, 22–24 °C, approximate, in words): mid-picomolar range | mean driven activity within receptive field ([2]; 1 μL of 10 μM LS3, 120 minutes post application, baseline 450 spikes, mean, 49 units): ~ 225 spikes | reduction of mean sound evoked activity ([2]; 1 μL of 10 μM LS3, after 3 hours, 47 recording sites, N = 5 mice): ~ 70% | mean sound evoked activity ([2]; 1 μL of 10 μM LS3, after 3 hours, baseline 430, 47 recording sites, N = 5 mice): 130 spikes | time course of driven activity ([2]; 1 μL of 10 μM LS3, mean of 49 units, F(5,206) = 5.085 P = 0.0002): continued to decline out to 4 hours | reduction of sound evoked driven activity within the RF ([2]; 1 μL of 10 μM stock, from baseline pre-peptide, Fig. 5A,B representative eRFs): approximately 50% | effect on Po (post vs. pre peptide) [3]: did not reduce Po; also recorded: Only when applied to the external side did LS3 significantly reduce Po | effect on sound evoked activity in the inferior colliculus ([4]; 0.3 mg/kg I.P. LS3): suppressed sound evoked activity in the inferior colliculus; also recorded: suppresses sound evoked activity in the IC when administered systemically | spikes within the eRF, representative eRF ([4]; systemic (0.3 mg/kg I.P.) LS3, 2 hrs): 41 spikes | spikes within the eRF, representative eRF ([4]; systemic (0.3 mg/kg I.P.) LS3, 5 hours): 37 spikes | reduction in spikes within the eRF ([4]; systemic (0.3 mg/kg I.P.) LS3, over 2 hours, mean, 47 units from 5 CBA mice): 85% | decrease in sound evoked activity within the receptive field, representative eRF ([4]; systemic (0.3 mg/kg I.P.) LS3, over 5 hours): 93% | time course of driven activity ([4]; systemic LS3, mean of 49 units, F(32,936) = 7.724 P < 0.0001): continued to decline out to 7 hours | effect on crawl speed (LS3 reduced crawl speed for wild type but not slo-1(null)) ([5]; 75 µM LS3 vs. vehicle): not | effect on crawl speed (LS3 reduced crawl speed for wild type but not slo-1(null)) ([5]; 250 µM LS3 vs. vehicle): not | effect on crawl speed (LS3 reduced crawl speed for wild type but not slo-1(null)) ([5]; 750 µM LS3 vs. vehicle): not | effect on crawl speed ([5]; slo-1 null, LS3 in NGM, 30 min bath, normalized to vehicle-treated controls): did not significantly slow | % inhibition by 10 µM LS3 (mAcetylcholine M4): 6.8%
